Experimental data from patent publication US20250387331A1, “PROSTAGLANDIN ANALOGS AND METHODS FOR SUSTAINED GLAUCOMA MANAGEMENT” (Peregrine Ophthalmic PTE LTD, priority 2024, published 2025).

Tests used:
[1] = tested on: rabbit eye; conditions: in vivo
Method: OCT macula were captured at baseline, at week 1, and at 4 week intervals thereafter.
P values were calculated using a 2 tailed t-test.

[2] = tested on: rabbit eye; experiment: IOP after suprachoroidal liposomal latanoprost or daily topical latanoprost (Example 2); assay type: in vivo, Dutch-Belt rabbits; conditions: daily eye drops 0.005% for two weeks
Method: A suprachoroidal injector (SupraMedical, Israel) was used that has a 30-gauge needle attached to an extension tubing connected to a 1 ml syringe. The length of the injector is adjusted by inputting readings of scleral thickness combined with a correction factor, supplied on a calibration table from the manufacturer. The scleral thickness was determined by ultrasound bio-microscopy (UBM). After the depth dial was set to the correct position, the plunger of the injector and the syringe were depressed simultaneously. Injections were delivered over 5-10 seconds. After the drug formulation or control was delivered, the plunger was released, and the injector gradually removed.
Rabbits receiving suprachoroidal injection had their scleral thickness measured with Optovue RTVue OCT. The thickness of the sclera was measured at 3 mm posterior to the corneoscleral junction. An average of three readings were taken to determine the mean scleral thickness. The length of the needle on the injector was subsequently calibrated by adding 300 μm to the mean scleral thickness. […]
Four Dutch-Belt rabbits (n=8 eyes) were used in this study. Baseline IOP was measured using a calibrated Tonopen XL® (Reichert Ophthalmic Instruments, Depew, NY). […] Animals were handled consistently to ensure stable IOP readings. […]
Three readings were taken for each eye and an average obtained. […]

CC(C)OC(=O)CCC/C=C\C[C@@H]1[C@@H](CC[C@@H](O)CCc2ccccc2)[C@H](O)C[C@@H]1O [Topical latanoprost, latanoprost]
Mean retinal thickness [1]: 131.44 μm
maximum decrease in IOP [2]: 38%
